Values after ≈ are worked out from the molar mass of the structure shown. Where two headings read alike, the source gives them in different places. Marks after values point to notes of the source that are not given here. Blank lines part the entries; values can stand above or below the molecule they belong to.
How the values were obtained:
[1] = tested on: MV3 (human melanoma cells); test: MTT reduction assay, killing tumor cells; assay type: cell-based; conditions: four days culture with drug
Description: (§1) The experiment was carried out for methyl TMZ-8-carboxylate, butyl TMZ-8-carboxylate, n-hexyl TMZ-8-carboxylate, and TMZ acid which had been known as an active compound against carcinoma, and used fluorouracil injection (10 ml:0.25 g, purchased from Xudong Pharmaceutical Co. Ltd, the batch number was 000612) as the drug for the positive control. Cancer cell strains used in experiments included HCT-8(human colon carcinoma cells), A549 (human lung carcinoma cells), MCF-7(human breast carcinoma cells), Bel7402 (human liver carcinoma cells), BGC-823(human gastric carcinoma cells) and MV3 (human melanoma cells).
(§2) TMZ acid is white powder; Methyl TMZ-8-carboxylate, butyl TMZ-8-carboxylate and n-hexyl TMZ-8-carboxylate, white scaly crystals, manufactured by the method described in Example 2; Fluorouracil injection (10 ml: 0.25 g): as drug for the positive control, manufactured by Xudong Pharmaceutical Co. Ltd, the batch number 000612; RPMI: produced by GIBCO; Calf serum: manufactured by Sijiqing bio-engineer material Co. Ltd, Hangzhou; and MTT: produced by Bebco.
(§3) All cancer cell strains of HCT-8, A549, MCF-7, Bel-7402, BGC-823, MV3 and B16 was fostered and transferred of culture by Institute of Materia Medica, Chinese Academy of Medical Sciences and Peking Union Medical College.
(§4) Tetrazolium salt [3-(4,5-dimethylthiazol-2-yl)-2,5-diphenyl-tetrazolium bromide, MTT] reduction assay was used. All the well-grown carcinoma cells were collected, prepared intol 1×10^4/ml cell suspension with the RPMI 1640 culture solution containing 10% calf serum, and inoculated in 96-well culture plate, with 100 uL per well (containing 1000 cancer cells). After 24 hours of culture in 5% CO2 thermos incubator at temperature of 37° C. the drugs were added. Blank control group was established and the drug for the positive control was Fluorouracil. The tested drugs were divided into five groups at different concentrations, each concentration was tested for three times parallelly, and placed in 5% CO2 thermos incubator at temperature of 37° C. to culture for four days. The culture solution was discarded and 100 uL of MTT solution (0.4 mg/ml, prepared with RPMI 1640) was added per well to continue to culture for four hours at temperature of 37° C. The supernate was discarded and 150 uL of DMSO was added to dissolve Fomazan granules. After slight agitation, the OD value was measured with BIORAD 550 enzyme labeling instrument at the measuring wavelength of 540 nm and the reference wavelength of 450 nm.
(§5) Data of cell inhibiting rate was then plotted vs. the concentration of drugs to obtain the dose-reaction curve, by which 50% inhibitory concentration IC50 was calculated (see Table 1 and Table 2).

[2] = tested on: HCT-8(human colon carcinoma cells); test: MTT reduction assay, killing tumor cells; assay type: cell-based; conditions: HCT-8 cells, four days culture with drug
Description: as §1, §2, §3, §4, §5

[3] = tested on: MCF-7(human breast carcinoma cells); test: MTT reduction assay, killing tumor cells; assay type: cell-based; conditions: MCF-7 cells, four days culture with drug
Description: as §1, §2, §3, §4, §5

[4] = tested on: BGC-823(human gastric carcinoma cells); test: MTT reduction assay, killing tumor cells; assay type: cell-based; conditions: BGC-823 cells, four days culture with drug
Description: as §1, §2, §3, §4, §5

[5] = tested on: A549 (human lung carcinoma cells); test: MTT reduction assay, killing tumor cells; assay type: cell-based; conditions: four days culture with drug
Description: as §1, §2, §3, §4, §5

[6] = tested on: Bel7402 (human liver carcinoma cells); test: MTT reduction assay, killing tumor cells; assay type: cell-based; conditions: Bel-7402 cells, four days culture with drug
Description: as §1, §2, §3, §4, §5

[7] = studies published in WO0057867; cited from earlier work
[8] = tested on: HCT-8, A549, MCF-7, Bel7402, BGC-823 and MV3 cancer cell strains; test: MTT reduction assay, summary over the selected cell strains; assay type: cell-based; conditions: Homo sapiens; summary of Table 1 over all selected cell strains; read-out: IC50 ranges for the selected cell strains
Description: as §1, §4, §5

[9] = Stability of TMZ-8-carboxylate derivatives in alcohols (HPLC); assay type: physicochemical; conditions: room temperature, sampled up to 32 months
Description: n-hexyl TMZ-8-carboxylate was weighed accurately and prepared into 1% of solution by diluting respectively with methanol, ethanol, isopropanol and tert-butyl alcohol. Three sample solutions (20 ml) were taken out in each of above solutions and placed into 50 ml volumetric brown glass bottle, sealed and allowed to stand at room temperature. At time of 1, 4, 8, 12, 16, 20, 24, 28, 32 months after beginning, the solutions were sampled and determined the concentration of n-hexyl TMZ-8-carboxylate by HPLC, to calculate the average value of three parallel solutions and plotted.

[10] = Stability of TMZ-8-carboxylate in media of different pH (HPLC); assay type: physicochemical; conditions: 1% aqueous solution, sampled up to 32 months
Description: The sodium hydroxide and citric acid were accurately weighed and respectively diluted with water to form the solution with the pH value of 7.5, 7.0, 6.5, 6.0 and 5.5. n-Hexyl TMZ-8-carboxylate was accurately weighed, and dissolved into said aqueous solutions with different pH values to form a series of 1% solutions of n-hexyl TMZ-8-carboxylate. Three sample solutions (20 ml) were taken out in each of above solutions and placed into 50 ml volumetric brown glass bottle, sealed and allowed to stand at room temperature. At 1, 4, 8, 12, 16, 20, 24, 28, 32 months after beginning, the solutions were sampled and determined the concentration of n-hexyl TMZ-8-carboxylate by HPLC, to calculate the average of three parallel solutions and plotted.

[11] = tested on: xenotransplanted human melanoma MV3; test: Topical administration, growth of xenotransplanted human melanoma in MV3 nude mouse; assay type: in vivo, nude mouse of BALB/c-nu
Description: Hexyl TMZ-8-carboxylate was selected as the representative to investigate the influence of TMZ-8-carboxylate derivatives on the growth of xenotransplanted human melanoma in MV3 nude mouse.
Hexyl TMZ-8-carboxylate was dissolved in DMSO to obtain 50 mg/ml solution. Human melanoma was xenotransplanted to nude mouse of BALB/c-nu to allow it to grow. Until the tumor expanded to the volume of 100˜300 mm^3, all animals were divided into two groups in accordance with the size of tumor, eight mice per group.
Of these two groups, one was the treatment group in therapeutical treatment by spreading the solution of hexyl TMZ-8-carboxylate; another was the control group where the tumor grows naturally.
In the treatment group, the drug was administered by spreading drug at the position of tumor and surrounding area (2 cm×2 cm) twice a day (once on Saturday and Sunday). Every time, when the solution was dried, administration was repeated for 1 to 2 times. The daily average dose of hexyl TMZ-8-carboxylate administered for a mouse totally was about 20 mg.
The volume of tumor in mouse was measured twice a week, so as to observe and record their growth dynamically. Until the tumor of the control group grew up to a certain volume, all the mice were killed the tumors were stripped off and weighed, growth inhibition rate was calculated. Tumor proliferation (T/C(%)) was calculated using relative volume of tumor in two groups.
Tumor volume (TV) was calculated by the equation as follows: Length×width^2÷2
The relative tumor volume is calculated by the equation as follows: Vt/Vo
Wherein the Vo is the TV measured at the time when the animals were raised in separate cages, and […] is the TV measured each time after.
The t-test was used to compare the statistical difference between two groups in many indexes such as tumor weight, TV and RTV. The relative tumor proliferation rate (T/C(%))was used as the index of bioactivity for anti tumor, which was calculated as follows: […]
The effect was evaluated by statistical analysis. The effect was regarded as invalid when T/C (%) is more than 60, and as effective when T/C (%) is equal to or less than 60 and p<0.05.

[12] = Homo sapiens, MV-3, 96 h, read-out: IC50
[13] = Homo sapiens, 96 h, read-out: IC50
[14] = Homo sapiens, MCF7, 96 h, read-out: IC50
[15] = 20 mg/day/mouse spread on tumor, beginning of test, X ± SD

Structure (SMILES): O=c1[nH]cc(F)c(=O)[nH]1 [Fluorouracil, reference compound]
IC50 [1, 12]: 0.427 µg/mL (≈ 3.28 µM)

Structure (SMILES): Cn1nnc2c(C(=O)O)ncn2c1=O [TMZ acid, reference compound]
IC50 [2]: 18.525 µg/mL (≈ 94.9 µM)
IC50 [3]: 14.911 µg/mL (≈ 76.4 µM)
IC50 [4]: >19.5 µg/mL
IC50 [5]: >19.5 µg/mL
IC50 [6]: 16.957 µg/mL (≈ 86.9 µM)
IC50 [1]: 14.625 µg/mL (≈ 74.9 µM)

Structure (SMILES): Cn1nnc2c(C(N)=O)ncn2c1=O [TMZ, Temozolomide]
Permeation of artificial skin (silicon membrane), rat skin and human skin [7]: inability to permeate

IC50 [8]: 10 to 30 µg/mL (≈ 39.8 to 119 µM)
Structure (SMILES): CCCCOC(=O)c1ncn2c(=O)n(C)nnc12 [butyl TMZ-8-carboxylate, Butyl 3,4-dihydro-3-methyl-4-oxoimidazo[5,1-d]-1,2,3,5-tetrazine-8-carboxylate]
IC50 [2, 13]: 27.4 µg/mL (≈ 109 µM)
IC50 [3, 14]: 16.6 µg/mL (≈ 65.9 µM)
IC50 [4, 13]: > 19.5 µg/mL
IC50 [5, 13]: 25.3 µg/mL (≈ 101 µM)
IC50 [6, 13]: 24.4 µg/mL (≈ 97 µM)
IC50 [1, 12]: 7.57 µg/mL (≈ 30.1 µM)

IC50 [8]: 10 to 30 µg/mL (≈ 47.8 to 143 µM)
Structure (SMILES): COC(=O)c1ncn2c(=O)n(C)nnc12 [methyl TMZ-8-carboxylate, Methyl 3,4-dihydro-3-methyl-4-oxoimidazo[5,1-d]-1,2,3,5-tetrazine-8-carboxylate]
IC50 [2, 13]: 28.4 µg/mL (≈ 136 µM)
IC50 [3, 14]: 17.7 µg/mL (≈ 84.5 µM)
IC50 [4, 13]: > 19.5 µg/mL
IC50 [5, 13]: 27 µg/mL (≈ 129 µM)
IC50 [6, 13]: 25.3 µg/mL (≈ 121 µM)
IC50 [1, 12]: 8.83 µg/mL (≈ 42.2 µM)

Stability in ethanol ([9]; 1% solution in ethanol): rapidly decomposes
Stability in isopropanol ([9]; 1% solution in isopropanol): keeps stable
Stability in methanol ([9]; 1% solution in methanol): rapidly decomposes
Stability in tert-butyl alcohol ([9]; 1% solution in tert-butyl alcohol): keeps stable
Stability in acidic (pH<7.0) medium ([10]; pH 6.5, 6.0 and 5.5, room temperature): keep relatively stable
Stability in neutral (pH7.0) medium ([10]; pH7.0, room temperature): rapidly decomposes
Stability in weakly alkaline (pH7.5) medium ([10]; pH7.5, room temperature): rapidly decomposes
IC50 [8]: 10 to 30 µg/mL (≈ 35.8 to 107 µM)
Structure (SMILES): CCCCCCOC(=O)c1ncn2c(=O)n(C)nnc12 [n-hexyl TMZ-8-carboxylate, n-hexyl 3,4-dihydro-3-methyl-4-oxoimidazo[5,1-d]-1,2,3,5-tetrazine-8-carboxylate]
IC50 [3, 14]: 20 µg/mL (≈ 71.6 µM)
IC50 [4, 13]: > 19.5 µg/mL
IC50 [1, 12]: 8.84 µg/mL (≈ 31.6 µM)
Effect on the growth of carcinomas in the mice ([11]; 20 mg daily externally administered per mouse, human melanoma MV3): significant inhibiting effects
Body weight(g) Beginning test [11, 15]: 24.0 ± 1.48 g
Tumor volume (mm^3) Beginning test [11, 15]: 115 ± 36 mm^3
Body weight(g) End test ([11]; 20 mg/day/mouse spread on tumor, end of test, X ± SD): 25.6 ± 3.64 g
Tumor volume (mm^3) End test ([11]; 20 mg/day/mouse spread on tumor, end of test, X ± SD, P < 0.05 vs control): 635 ± 545.1* mm^3
Weight of tumor ([11]; 20 mg/day/mouse topical, end of test, X ± SD): 0.45 ± 0.335 g
Inhibiting rate (%) ([11]; growth inhibition rate from tumor weight, 20 mg/day/mouse topical): 83.2%
T/C(%) ([11]; relative tumor proliferation rate, 20 mg/day/mouse topical, effective if <= 60 and p<0.05): 33.7%
RTV ([11]; relative tumor volume Vt/Vo, 20 mg/day/mouse topical): 3.25 ± 1.85
